Source: patent US20200352889A1, “CYSTATHIONINE COMPOSITIONS AND METHODS OF TREATMENT FOR HEALTH CONDITIONS” (THE REGENTS OF THE UNIVERSITY OF COLORADO, A BODY CORPORATE, priority 2011, published 2020)
Residues, ends and D or L forms follow the SMILES beside them. *: point of attachment. Cbz = O=C(OCc1ccccc1)*; CH2F = FC*

How the values were obtained:
[1] = tested on: A293AD kidney cells; assay: Thapsagargin-induced cell death, LDH release, A293AD kidney cells; type: cell-based, human
Procedure: It was previously shown that cystathionine can protect against ER stress induced cell death induced by the glycosylation inhibitor tunicamycin. In order to investigate if this protective effect was limited to tunicamycin, it was investigated whether cystathionine (1 mM) could protect A293AD kidney cells against ER stress induced cell death mediated by the calcium metabolism inhibitor compound thapsagargin (1 uM). Cell death was monitored by measuring LDH release into culture media. In order to investigate if cystathionine was simply blocking apoptosis, the effect of thapsagargin in the presence of the known apoptosis inhibitor Z-VAD-FMK was investigated. […] While it is not necessary to understand the mechanism of action, it is believed that 1.

[2] = tested on: HepG2 cells; assay: Tunicamycin or thapsagargin induced cell death in HepG2 cells, comparison with Z-VAD-FMK; type: cell-based, human; conditions: p>0.05 for Z-VAD-FMK
[3] = tested on: HepG2 cells; assay: Tunicamycin-induced cell death, LDH release, HepG2 cells; type: cell-based, human; conditions: data not shown
Procedure: Cells were seeded in triplicate at ˜75% confluence and pre-treated with either PPG) (5 mM), Cystathionine (1 mM) or with just complete media (DMEM, 10% FBS) as a control. After 24 hr pre-treatment, cells looked normal, with minimal floating cells. Fresh media with 1% FBS was then added to each well, the cells were further treated with Tm (either 5 or 10 ug)/ml. After 18 hr. treatment with Tunicamycin, cells were photographed under phase-contrast with a Zeiss Axiovert 25 microscope for evidence of dead floating cells. Cells from the group treated solely with tunicamycin became strikingly hyper-refringent, detached from the substratum and floated in the media. […] To further evaluate a role for cystathionine in resisting the induction of cell death by tunicamycin, cell lysis was quantified by assaying lactate dehydrogenase (LDH) release. The enzyme activity was determined spectrophotometrically and the amount of enzyme leak was expressed as a percentage of the LDH activity observed in untreated control cells. […]
(§1) Cells were seeded in triplicate at ˜75% confluence and pre-treated with either PPG) (5 mM), Cystathionine (1 mM) or with just complete media (DMEM, 10% FBS) as a control. […] To further evaluate a role for cystathionine in resisting the induction of cell death by tunicamycin, cell lysis was quantified by assaying lactate dehydrogenase (LDH) release. […]

[4] = tested on: a23 cells; assay: Tunicamycin-induced cell death, LDH release, transsulfuration negative a23 cells; type: cell-based, Chinese hamster; conditions: CBS and CGL negative, p<0.0001
From the text: However, examination of a direct effect of exogenously added cystathionine is not currently possible in a whole animal model because of complications with the compounds solubility and rapid kinetics of its excretion. In order to investigate the direct effects of cystathionine against ER stress-induced cell death, the cytotoxicity of tunicamycin in the human embryonic kidney cell line 293AD and the human hepatoma cell line HepG2 in the presence and absence of both PPG and exogenously added cystathionine was examined. Preliminary experiments confirmed that both of these cell lines express both CBS and CGL (data not shown). In order to investigate the possible protective effects of cystathionine in the absence of transsulfuration, these experiments were repeated with the CBS and CGL negative Chinese hamster fibroblast line a23 (6).
as §1, with “release. The enzyme activity was determined spectrophotometrically and the amount of enzyme leak was expressed as a percentage of the LDH activity observed in untreated control cells.” for “release.”

[5] = Solubility of cystathionine in water; type: physicochemical
[6] = Urinary excretion of cystathionine in mice; type: in vivo, mouse
[7] = tested on: Grp78, Grp94, GADD153; assay: Northern and Western blotting of UPR induction in 293AD cells; type: cell-based, human
Procedure: To further assess the effect of cystathionine upon induction of the UPR and GADD153 by ER stress Northern and Western blotting experiments were performed.
Immunoblot analysis of total cell lysates was performed as described previously (4,14). Briefly, following incubation with the appropriate primary and horseradish peroxidase-conjugated secondary antibodies (Affinity Biologicals, Ancaster, ON, Canada) membranes were developed using the Renaissance® Western Blot Chemiluminescence Reagent Kit, (Perkin Elmer, Woodbridge, ON, Canada). Proteins were transferred on a nitrocellulose membrane, and probed with anti-KDEL monoclonal antibody, which recognizes Hsp70, GRP78 and GRP94 that was purchased from Stressgen Biotechnologies (SPA-827) or anti GADD153 (Santa Cruz Biotech #SC-7351). Anti-β-Actin monoclonal antibody (Sigma) was used as a loading control.
Total RNA was isolated from 293AD cells using the RNeasy® total RNA kit (Qiagen, Santa Clarita, Calif.) and resuspended in diethylpyrocarbonate (DEPC)-treated water. Quantification and purity of the RNA was assessed by A260/A280 absorption, and RNA samples with ratios greater than 1.6 were stored at […] for further analysis. Total RNA (10 μg/lane) was fractionated on 2.2 mol/L formaldehyde/1.2% agarose gels and transferred overnight onto Zeta-Probe® GT nylon membranes (Bio-Rad, Toronto, Canada) in 10×SSC. The RNA was cross-linked to the membrane using a UV crosslinker (PDI Bioscience, Toronto, Canada) before hybridization. Specific probes were generated by labeling cDNA fragments with [−32P]dCTP (NEN) using a random primed DNA labeling kit (Boehringer Mannheim, Laval, Canada). The cDNA probe for GADD153 (no. AA627477) was obtained from Genome Systems (St Louis, Mo.). The cDNA probe used for GRP78 is a full length cDNA clone that has been described previously (4). After overnight hybridization at 43° C., the membranes were washed as described by the manufacturer, exposed to x-ray film, and subjected to autoradiography.

[8] = tested on: 293AD cells; assay: Tunicamycin-induced cell death, LDH release and phase-contrast, 293AD cells; type: cell-based, human
Procedure: Cells were seeded in triplicate at ˜75% confluence and pre-treated with either PPG) (5 mM), Cystathionine (1 mM) or with just complete media (DMEM, 10% FBS) as a control. After 24 hr pre-treatment, cells looked normal, with minimal floating cells. Fresh media with 1% FBS was then added to each well, the cells were further treated with Tm (either 5 or 10 ug)/ml. After 18 hr. treatment with Tunicamycin, cells were photographed under phase-contrast with a Zeiss Axiovert 25 microscope for evidence of dead floating cells. Cells from the group treated solely with tunicamycin became strikingly hyper-refringent, detached from the substratum and floated in the media. […] To further evaluate a role for cystathionine in resisting the induction of cell death by tunicamycin, cell lysis was quantified by assaying lactate dehydrogenase (LDH) release. The enzyme activity was determined spectrophotometrically and the amount of enzyme leak was expressed as a percentage of the LDH activity observed in untreated control cells.
HepG2, 293AD and a23 cells were seeded in triplicate at ˜75% confluence and were pre-treated with either propargylglycine (PPG) (5 mM) or cystathionine (5 mM) in complete media (DMEM, 10% FBS). After 24 hours, fresh media with 1% FBS was added to each well. Cells were then further treated with tunicamycin (either 5 or 10 ug/ml) for 18 hr treatment. Cells were subsequently photographed under phase-contrast with a Zeiss Axiovert 25 microscope for evidence of dead floating cells. To quantify cell death the media supernatant was collected for LDH release assay using a kit from Roche Applied Science (Cat.No.11 644 793 001) according to the manufacturer's standard protocol where cytotoxicity (%)=((experimental value-low control/(high control-low control))×100.
Cells were seeded in triplicate at ˜75% confluence and pre-treated with either PPG) (5 mM), Cystathionine (1 mM) or with just complete media (DMEM, 10% FBS) as a control. After 24 hr. pre-treatment, cells looked normal, with minimal floating cells. Fresh media with 1% FBS was then added to each well, the cells were further treated with Tm (either 5 or 10 ug)/ml. After 18 hr. treatment with Tunicamycin, cells were photographed under phase-contrast with a Zeiss Axiovert 25 microscope for evidence of dead floating cells. Cells from the group treated solely with tunicamycin became strikingly hyper-refringent, detached from the substratum and floated in the media. […] To further evaluate a role for cystathionine in resisting the induction of cell death by tunicamycin, cell lysis was quantified by assaying lactate dehydrogenase (LDH) release. The enzyme activity was determined spectrophotometrically and the amount of enzyme leak was expressed as a percentage of the LDH activity observed in untreated control cells.

| Compound | reduction of total cell death ([1]; thapsagargin 1 uM) | protection against cell death induced by thapsagargin [2] | protection against cell death induced by tunicamycin [2] | protection against tunicamycin-induced cell death compared with 293AD cells [3] | reduction in tunicamycin induced cell death (LDH release) [4] [fold] | cell death in cystathionine control ([1]; cystathionine 1 mM alone) | protection against thapsagargin induced cell death (LDH release) ([1]; cystathionine 1 mM, thapsagargin 1 uM) | solubility in water [5] | excretion in urine [6] | expression of Grp78, Grp94 and GADD15 in control cells ([7]; PPG 5 mM or cystathionine 5 mM, no tunicamycin) | scale of induction of Grp78, Grp94 and GADD153 in the presence of tunicamycin ([7]; tunicamycin 5 and 10 μg/ml) | reduction in cell death (LDH release) ([8]; 293AD cells, tunicamycin 10 μg/ml 18 hr, 24 hr pre-treatment PPG 5 mM or cystathionine 1 mM, p<0.0001) [fold] | floating dead cells (phase-contrast) ([8]; tunicamycin 18 hr after PPG or cystathionine pre-treatment) |
| --- | --- | --- | --- | --- | --- | --- | --- | --- | --- | --- | --- | --- | --- |
| COC(=O)C[C@H](NC(=O)[C@H](C)NC(=O)[C@@H](NC(=O)OCc1ccccc1)C(C)C)C(=O)CF [Z-VAD-FMK] (Cbz-Val-Ala-Asp(OMe)-CH2F) | approximately 20% | only modest protection | only modest protection | – | – | – | – | – | – | – | – | – | – |
| NC(CSCC[C@@H](N)C(=O)O)C(=O)O (stereo partly drawn) [cystathionine, R—S-(2-Amino-2-carboxyethyl)-L-homocysteine] | – | much greater protective effects | much greater protective effects | Essentially identical results | 16 | No cell death was observed | highly significant protective effects | relatively low solubility in water | rapidly excreted in the urine | Neither PPG nor exogenously added cystathionine induced expression | Nor did either of these treatments significantly alter the scale of induction | 27 | No floating dead cells were observed |
